Experimental data taken from PMC7256847 (Polish Journal of Microbiology, 2019).
Read-outs that look alike come from different tables or passages of the source. Blank lines part the entries; values can stand above or below the molecule they belong to.

Legend:
[1] = molecular target: T1, alanine racemase (SiAlr) (Streptococcus iniae, UniProt A0A3L8GG59); assay: enzyme inhibition assay with purified recombinant SiAlr; assay type: biochemical
T1 sequence (A0A3L8GG59 1-368): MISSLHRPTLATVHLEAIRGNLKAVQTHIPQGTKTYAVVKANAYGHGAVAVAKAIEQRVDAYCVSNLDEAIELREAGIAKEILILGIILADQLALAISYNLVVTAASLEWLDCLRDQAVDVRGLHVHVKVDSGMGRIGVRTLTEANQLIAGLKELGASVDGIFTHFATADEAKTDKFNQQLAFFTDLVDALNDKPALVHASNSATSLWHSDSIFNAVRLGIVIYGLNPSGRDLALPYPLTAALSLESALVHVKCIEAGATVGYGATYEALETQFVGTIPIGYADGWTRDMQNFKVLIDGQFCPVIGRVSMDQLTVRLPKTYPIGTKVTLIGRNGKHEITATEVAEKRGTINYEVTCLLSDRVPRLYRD

[2] = molecular target: T1, alanine racemase (SiAlr); assay: as above; assay type: biochemical; remark: listed apart in the source
[3] = substrate: C[C@H](N)C(=O)O; assay: HPLC racemization kinetics; assay type: biochemical, Streptococcus iniae; settings: pyridoxal […]'-phosphate (PLP)
[4] = substrate: C[C@@H](N)C(=O)O; assay: HPLC racemization kinetics; assay type: biochemical, Streptococcus iniae; settings: pyridoxal […]'-phosphate (PLP)

- IC50 [1]: 3.69 µM
Molecule: N[C@@H]1CON=C1O [D-cycloserine]

- IC50 [2]: 12.3 µM
Molecule: O=C(O)Cc1cc(O)ccc1O [homogentisic acid]

- IC50 [2]: 11.4 µM
Molecule: Oc1ccc(O)cc1 [hydroquinone]

B1: alanine racemase (SiAlr) (Streptococcus iniae) (protein)
chain: MISSLHRPTLATVHLEAIRGNLKAVQTHIPQGTKTYAVVKANAYGHGAVAVAKAIEQRVDAYCVSNLDEAIELREAGIAKEILILGIILADQLALAISYNLVVTAASLEWLDCLRDQAVDVRGLHVHVKVDSGMGRIGVRTLTEANQLIAGLKELGASVDGIFTHFATADEAKTDKFNQQLAFFTDLVDALNDKPALVHASNSATSLWHSDSIFNAVRLGIVIYGLNPSGRDLALPYPLTAALSLESALVHVKCIEAGATVGYGATYEALETQFVGTIPIGYADGWTRDMQNFKVLIDGQFCPVIGRVSMDQLTVRLPKTYPIGTKVTLIGRNGKHEITATEVAEKRGTINYEVTCLLSDRVPRLYRD
- Km [3]: 33.11 mM
- Km [4]: 14.36 mM
